Measured values taken from patent publication US20130203843A1, “MILD CATIONIC MITOCHONDRIAL UNCOUPLERS” (LIMITED LIABILITY COMPANY MITOTECH, priority 2010, published 2013).

Tests used:
[1] = tested on: yeast Saccharomyces cerevisiae; test: Yeast growth rate in the presence of uncoupler; assay type: cell-based; details: 5 μM; incubated for 2 hours
Experimental: (§1) FIG. 3. Comparison of properties of C12R19 and C12RB based on relative rate of oxygen consumption by whole yeast (Saccharomyces cerevisiae) cells (A) and yeast growth rate (B). V/V0 corresponds to ratio of oxygen consumption rates after and before addition of uncoupler. Growth rate was defined as the number of CFU (colony-forming units) in cell suspension culture incubated for 2 hours in the presence of indicated concentration of rhodamine derivative.
(§2) FIG. 4. Comparison of stimulation of respiration and suppression of growth: (A) cationic (C12R19), and (B) anionic (FCCP) uncouplers in yeast (Saccharomyces cerevisiae) cells grown on nonfermentable substrate (glycerol). Stimulation of respiration was estimated based on the ratio of oxygen consumption rate in the presence of uncoupler (V) to initial rate (V0). Growth rate was assessed by increase in the number of cells for a given time interval. Growth rate in the absence of uncoupler was taken as 100%.
Under similar conditions experiments determining yeast growth rate in the presence of a given concentration of uncoupler were performed.

[2] = Diffusion potential on planar bilayer lipid membrane ("black membrane" model); details: for formation of potential upon creation of gradient of the penetrating cation: 1 μM on cis side, same pH on both sides (pH=7); for formation of proton diffusion potential across lipid bilayer: 1 μM, pH_cis=7, pH_trans=8
Experimental: FIG. 1. A. C12R19, but not C12RB, induces formation of proton diffusion potential across planar lipid bilayer membrane prepared from DPhPC. Concentrations of C12R19 and C12RB are 1 μM. pH_cis=7, pH_trans=8. B. Formation of potential upon creation of gradient of penetrating cations C12RB and C12R19 (1 μM on cis side) at the same pH on both sides (pH=7).
To test penetrating ability of mitochondria-targeted compounds of structure (I), a method based on the ability of ions to penetrate through the bilayer phospholipid membrane moving along concentration gradient was used. The two chambers filled with an aqueous solution are separated by the bilayer membrane, the compound tested is added to one of the chambers. If a charged compound is capable of penetrating through the bilayer membrane, fast diffusion of the compound from the chamber with its high concentration to the chamber with its low concentration occurs, thus difference in the potentials is formed across the membrane. For ions carrying one charge and capable of passive penetrating through the membrane, the 10-fold concentration gradient allows to produce the potential of 60 mV at room temperature and ideal permeability (according to the Nernst equation).
This method was used in various studies on the ability of ions to penetrate through a bilipid membrane and is described in detail in article: Starkov A A, Bloch D A, Chernyak B V, Dedukhova V I, Mansurova S A, Symonyan R A, Vygodina T V, Skulachev V P, 1997, Biochem. Biophys Acta, 1318, 159-172. With this method, C12-R19 (compound of structure (I)) was tested.
It is known that addition of protonophore to such a system should lead to formation of the electric potential due to the flow of protons. […] This can be explained by shunting of potential due to induction of proton conductivity in the presence of C12R19.

[3] = tested on: rats with induced rhabdomyolysis; test: Rhabdomyolysis-induced acute renal failure in rats; assay type: in vivo; details: rat; i.p. 100 nmol/kg per injection, total 400 nmol/kg; 48 h after glycerol; versus rhabdomyolysis without treatment
Experimental: FIG. 6. Creatinine level in blood of rats with induced rhabdomyolysis. Histogram bar “control” indicates level of creatinine in control group of animals; “rhabdo”—creatinine level in animals with rhabdomyolysis; “rhabdo+C12-R19”—creatinine level in animals with rhabdomyolysis and treatment with C12R19. All data are presented as mean±standard error of measurement.
Induction of rhabdomyolysis was performed according to standard method by injecting rat leg muscles with 50% aqueous glycerol solution (ICN, USA). At the second day after ischemia, blood samples from animals were taken. Creatinine concentration in blood was determined using a CellTac blood analyzer (Nihon Kohben). Experiments on modeling of rhabdomyolysis were performed with at least 8 animals from each group. All data are presented as mean±standard error of measurement.
For the treatment, the following scheme of C12R19 administration was used: intraperitoneal injection of the preparation 1 h after induction of rhabdomyolysis and then three times every 12 hours at a dose of 100 nmol/kg per injection. Thus, an animal received a total dose of 400 nmol/kg of C12R19.

[4] = Dissipation of pH gradient in membranes of pyranine-loaded liposomes; details: for dissipation of pH gradient (intraliposomal pH change), protonophore activity: in the presence of valinomycin (10 nM), C12R19 and C12RB at 0.15 μM, pH 8 buffer
Experimental: FIG. 2. […] Intraliposomal pH was estimated based on the ratio of the intensities of fluorescence at 455 nm and 505 nm (excitation at 410 nm). 1 μM nigericin was added at 550 s for final pH adjustment. Control curve contained C12R19 but no valinomycin. Concentrations: C12R19 (150 nM), C12RB (150 nM), valinomycin (10 nM), lipid (75 μM). […] Control curve corresponds to addition of 10 nM valinomycin without protonophores. Buffer containing 10 mM MES, 10 mM MOPS, 10 mM TRICINE, and 0.1 M KCl (pH 8) was used.
This method was used in various studies on the protonophore activity and is described in detail in article: Chen Y, Schindler M, Simon S M (1999) J Biol Chem 274:18364-18373. […] Said measurements were performed in the presence of valinomycin, the K^+ ionophore.

ischemized rats = test: Cerebral ischemia in rats (middle cerebral artery blockage): MRT infarct volume and neurological deficit; assay type: in vivo; details: rat, i.p. 100 nmol/kg 24 hours before ischemia, 1 day after surgery
Experimental: FIG. 7. Results of behavioral tests in rats before and at the first day after induction of ischemia. Bar “baseline” indicates final points in animals before surgery; “SO”—points in sham-operated animals; “ischemia+saline”—points in ischemized animals without treatment, with saline solution instead of the preparation; “ischemia+C12R19 0.1 μM” and “ischemia+C12R19 2 μM”—points in ischemized animals with treatment with preparation C12R19 at indicated concentrations. Statistically significant (p<0.01) reduction in severity of neurological deficit in rats treated with C12R19, denoted as
Cerebral ischemia in rats was induced by insertion of nylon thread with silicone coating into the middle cerebral artery. Blockage of the blood flow was maintained for 60 min, after which the thread was removed from the vessel restoring the blood flow in the middle cerebral artery. During and after the surgery the body temperature of the animal was maintained at 37° C. Sham-operated animals were subjected to the same procedures, except for cutting vessels and insertion of thread. The volume of cerebral infarction was determined at the first day to study neuroprotective effects of preparations. […]
1 day after surgery, neurological deficit was determined in rats in the test “Stimulation of legs” and magnetic resonance imaging of the brain was performed. […]

[5] = tested on: yeast cells treated with 80 μM amiodarone; test: Survival of yeast cells treated with amiodarone; assay type: cell-based, Saccharomyces cerevisiae
Experimental: FIG. 5. Comparison of resistance of yeast cells to 80 μM amiodarone in the presence of different concentrations of anionic (FCCP) and cationic (C12R19) uncouplers.
To test this, we compared the survival of yeast cells treated with 80 μM amiodarone in the presence of 1-10000 nmol/L FCCP and C12R19.

[6] = tested on: whole yeast (Saccharomyces cerevisiae) cells; test: Rate of oxygen consumption by whole yeast cells; assay type: cell-based; details: for stimulation of respiration versus suppression of growth: wide range of concentrations, yeast grown on nonfermentable substrate (glycerol)
Experimental: as §1, §2
Simulation of respiration of whole yeast cells reflects uncoupling properties of tested compound.

obese people = obese people treated with DNP; cited from earlier work
[7] = tested on: yeast cells treated with 80 μM amiodarone; details: earlier publication (Pozniakovsky 2005); cited from earlier work

For CCCCCCCCCCCCOC(=O)c1ccccc1-c1c2cc(C)c(=NCC)cc-2oc2cc(NCC)c(C)cc12 (stereo in doubt) [C12R19, Dodecyl-2-[(3E)-6-(ethylamino)-3-(ethylimino)-2,7-dimethyl-3H-xanthen-9-yl]benzoate bromide], the “yeast growth rate (CFU)” value [1] was “significant reduction in the growth rate of the yeast Saccharomyces cerevisiae is not observed”, the “formation of potential upon creation of gradient of the penetrating cation” value [2] was “did not” and the “formation of proton diffusion potential across lipid bilayer” value [2] was “can generate potential”. The “creatinine level in blood” value [3] was “decrease in creatinine level in blood”, the “intraliposomal pH changes” value ([4]; in the absence of valinomycin, C12R19 150 nM) was “pH changes did not occur” and the “dissipation of pH gradient (intraliposomal pH change), protonophore activity” value [4] was “significant changes of intraliposomal pH on the time-scale of minutes”. For the same molecule, the “neurological deficit, test "Stimulation of legs" (14-point scale)” value (ischemized rats; control rats 2.0±0.2, p<0.01) was 5.3±1.1 points, the “volume of ischemic damage (T2-weighted MRT)” value (ischemized rats; saline = 100±8.6%) was 80.4±11.5% and the “concentration range of cationic uncoupler relative to FCCP” value [5] was “at least an order of magnitude higher”. The “concentration range protecting cells against amiodarone” value ([5]; 1-10000 nmol/L tested) was 1 to 1000 nmol/L, the “rate of respiration of whole yeast cells” value ([6]; concentration range that includes 5 μM) was “marked stimulation of the rate of respiration” and the “rate of respiration of whole yeast cells” value ([6]; up to a concentration of 15 μM) was “did not reduce the rate of respiration”. The “stimulation of respiration versus suppression of growth” value [6] was “increases respiration rate without inhibiting yeast growth”.

In the case of CCCCCCCCCCCCOC(=O)c1ccccc1-c1c2ccc(N(CC)CC)cc2[o+]c2cc(N(CC)CC)ccc12 [C12RB], the “formation of potential upon creation of gradient of the penetrating cation” value [2] was “induced the potential upon addition at one side”, the “formation of proton diffusion potential across lipid bilayer” value [2] was “but not C12RB, can generate potential” and the “dissipation of pH gradient (intraliposomal pH change), protonophore activity” value [4] was “practically no activity”. The “rate of respiration of whole yeast cells” value ([6]; concentration of 4 μM) was “significant increase in the rate of respiration” and the “rate of respiration of whole yeast cells” value ([6]; further increase in concentration above 4 μM) was “inhibition of respiration”.

For O=[N+]([O-])c1ccc(O)c([N+](=O)[O-])c1 [DNP, 2,4-dinitrophenol], the “side effects in patients” value (obese people) is listed as “many of them showed severe side effects” and the “weight loss in patients” value (obese people) is listed as “virtually all of the patients lost weight”.

For N#CC(C#N)=NNc1ccc(OC(F)(F)F)cc1 [FCCP], the “dissipation of pH gradient (intraliposomal pH change), protonophore activity” value [4] is given as “significantly greater activity”, the “yeast cell death caused by amiodarone” value [7] is given as “prevents yeast cell death caused by amiodarone” and the “uncoupling efficiency estimated from rate of oxygen consumption” value ([6]; FCCP compared with C12R19) is given as “much higher than that of C12R19”. For the same molecule, the “stimulation of respiration versus suppression of growth” value [6] was “in contrast to FCCP”.

In the case of CC(C)[C@@H]1NC(=O)[C@H](C)OC(=O)[C@@H](C(C)C)NC(=O)[C@@H](C(C)C)OC(=O)[C@H](C(C)C)NC(=O)[C@H](C)OC(=O)[C@@H](C(C)C)NC(=O)[C@@H](C(C)C)OC(=O)[C@H](C(C)C)NC(=O)[C@H](C)OC(=O)[C@@H](C(C)C)NC(=O)[C@@H](C(C)C)OC1=O [valinomycin], the “proton flux on liposomes by valinomycin itself” value ([4]; control experiments, data not shown) was “does not induce proton flux on liposomes”.
